According to US8409602B2, “Sealants for fetal membrane repair” (Northwestern University, priority 2009, dated 2013):

Legend:
[1] = test system: fetal membranes; assay: Direct contact-induced apoptosis (TUNEL) in fetal membranes; type: cell-based
Description: Toxicity tests. Toxicity of sealants for fetal membrane cells was evaluated using direct contact and elution tests, as per International Organization for Standardization (ISO) 10993-5 guidelines.
Direct contact cytotoxicity. […] 4.5 software (Carl Zeiss).

[2] = test system: fetal membranes
Description: Direct contact cytotoxicity. Direct contact studies were performed with term fetal membranes obtained from three cases. The amniotic layer was chosen for sealant application (FIG. 1A) because this layer was proposed to be the strength-bearing layer of fetal membranes and major determinant for PPROM.^31 2×1 cm patches of freshly harvested fetal membranes were placed into wells of 6-well plates with amnion layer up. […] Membranes covered with sealant were covered with 3 mL culture medium (Ham's F-12/DMEM supplemented with 10% FBS, 100 U/ml penicillin, and 100 μg/ml streptomycin) and cultured for 24 h at 37° C. […] Deparaffinized sections were either stained with hematoxylin-eosin (H/E), or stained for apoptotic cells using TUNEL technology (Terminal deoxynucleotidyl transferase dUTP nick end labeling; In Situ Cell Death Detection Kit, Fluorescein (Roche Diagnostics GmbH, Mannheim, Germany). For total cell counts, all cell nuclei were counterstained with 4′,6-diamidin-2′-phenylindol-dihydrochlorid (DAPI; Sigma, Buchs, Switzerland). The histologic images were taken with a Zeiss Axiovert 200M fluorescent microscope (Carl Zeiss, Goettingen, Germany) equipped with an Zeiss AxioCam MRc digital camera and analysed with AxioVision Rel. […] One tissue section per case was analysed, taking four optical fields per section for analysis.

[3] = test system: epididymal fat pad; assay: Material-only implantation at the murine epididymal fat pad; parameters: species or system C57BL6 mice; settings: mouse, in vivo
Description: Material-only implantation. Healthy, age-matched male C57BL6 mice (Jackson Laboratories, Bar Harbor, Me.) were anesthetized with nebulized isoflurane (IsoThesia; Butler/Abbott Laboratories, North Chicago, Ill.) and intraperitoneal injection of 2% Avertin (2,2,2-tribromoethanol, Sigma) at 0.3 mg/g body weight, prior to shaving of the abdomen and sterile preparation of the surgical site. The left epididymal fat pad was exposed through midline lower abdominal incision and manipulation of the tissue flap. This thin, well-vascularized tissue is analogous to the omentum of larger mammals and has dimensions on the order of 1.5—1.5 cm. Sterile, two-component mixing and adhesive delivery was achieved by a dual-barrel blending connector with mixer device (Micromedics, St Paul, Minn.) containing sterile-filtered 300 mg/mL cPEG and 0.056 M sodium periodate, respectively.
Following topical delivery of approximately […] adhesive, the deposition site was left undisturbed for 1 min. The sample site was then manually reinserted into the lower abdominal cavity and the incision closed with double-layer suture. Mice were monitored postoperatively until conscious recovery. At three days, two weeks, six weeks, and one-year post-implant, the adhesive and associated adipose tissue was surgically removed from anesthetized mice, prior to euthanasia. […]

Substance: four-armed catechol-terminated polyethylene glycol (cPEG) [cPEG adhesive]
- apoptosis compared with control [1]: did not enhance apoptosis over control
- effect on membrane morphology [2]: normal membrane morphology appeared maintained
- immediate local reaction at deposition site [3]: no immediate visible inflammation or redness
- non-specific postsurgical adhesions [3]: no evidence of non-specific postsurgical adhesions
